Eight molecules from patent US12421496B2, “Method for producing natural killer cell and use thereof” (KOREA RESEARCH INSTITUTE OF BIOSCIENCE AND BIOTECHNOLOGY, priority 2017, dated 2025) can be followed below.

Test [1] relates to PBMC cells into which OSKM was introduced. Nature of the test: Efficiency of direct reprogramming depending on composition of NKIM-II medium. The format is cell-based, human. The note with it: added to NKIM-II medium, cultured for 29 days after 6 days in NKIM-I. The procedure: (§1) After introducing reprogramming factors (Oct4, Sox2, Klf4, and Myc) into PBMC cultured in the NKIM-I medium and NKIM-II medium, a mixture additive was added to the medium for analysis to promote the production capacity of natural killer cells produced by direct reprogramming.
In the case of NKIM-II medium, after introducing OSKM into PBMC cells, the following day, 1×10^5 transformed cells were added to a 48-well culture dish and cultured in NKIM-I medium for 6 days, and then these cells were cultured for 29 days in a medium in which StemRegenin I, which is an aryl hydrocarbon receptor antagonist, CH-223191, or FICZ, which is an aryl hydrocarbon receptor agonist, was added to NKIM-II.

In test [2] the test system is PBMC into which OSKM was introduced. Nature of the test: Efficiency of direct reprogramming depending on composition of NKIM-I medium. The following applies: single additive in NKIM-I medium compared with the condition without additives. The format is cell-based, human. On the procedure:
as §1
Specifically, in the case of NKIM-I medium, after introducing OSKM into PBMC, the following day, 1×10^5 transformed cells were added to a 48-well culture dish in the reprogramming culture process with different combinations of 5 μM CHIR 99021, 2 mM LiCl, […], and 20 ng/mL human IL-15 in NKIM-I medium, and the production capacity of CD56+ induced natural killer cells was thereby confirmed.

For the next test, the system named is PBMC (CD34−CD56−) cells. Nature of the test: Role of GSK3β inhibitor in direct reprogramming from PBMC to natural killer cells, flow cytometry. The format is cell-based, human. The following applies: when CT99021 (5 μM) was not added to NKIM-I medium, compared with added; 24th day. On the procedure: On the 24th day when direct reprogramming was started as in Example 1, the cells were recovered and stained using antibodies against CD56 and CD4 attached with fluorescence and then the group of natural killer cells (CD56^+ and CD4^−) was analyzed by flow cytometry.
A general note: In flow cytometry, cells or beads pass a laser one at a time.

A further test deals with SW620. The test can be described thus: In vivo anti-cancer effect, subcutaneous SW620 tumor in nude mice. Also noted: species or system Balb/c-nude mouse. The note with it: 2 mg/kg i.p. every other day for two weeks; day 28. On the procedure:
In addition, in vivo experiments were performed using mice to verify the anti-cancer effect of induced natural killer cells. The day after subcutaneous injection of 2×10^6 Sw620 into the back of 8-week-old nude mice (Balb/c-nude mouse, average weight 20 g to 25 g), induced natural killer cells (5×10^6, 1.5×10^7) and 2 mg/kg of doxorubicin were injected. Induced natural killer cells were injected intravenously (i.v.) twice on D1 and D4, and doxorubicin was injected intraperitoneally (i.p) every two days (every other day) for two weeks. On the 28th day, the mice of each group were sacrificed by cervical dislocation technique, and the protruding cancer masses formed under the skin of the mice of each group were extracted. The extracted Sw620 cancer was compared by group to confirm the anti-cancer effect of induced natural killer cells (FIG. 13A).

As for `O=Cc1c2[nH]c3ccccc3c2cc2[nH]c3ccccc3c12` [FICS], in test [1], the “yield of induced natural killer cells” value is “significantly reduced”.

For `Cc1ccccc1N=Nc1ccc(NC(=O)c2ccnn2C)c(C)c1` [CH-223191], in test [1], the “yield of induced natural killer cells” value is “significantly increased”.

Regarding `[Cl-].[Li+]` [LiCl], the “production of CD56+CD3− induced natural killer cells” value (“production” for short) in test [2] is “effect of promoting the production”.

Turning to `CC(C)n1cnc2c(NCCc3ccc(O)cc3)nc(-c3csc4ccccc34)nc21.Cl` [StemRegenin I, (4-(2-((2-benzo[b]thiphen-3-yl)-9-isopropyl-9H-purin-6-yl)amino)ethyl)phenol hydrochloride], the “yield of induced natural killer cells” value in test [1] is reported as “significantly increased”. The “production” value in test [2] was “effect of promoting the production”.

As for “IL-15: human interleukin 15, cytokine additive”, the “production” value in test [2] is reported as “effect of promoting the production”.

Take `Cc1c[nH]c(-c2cnc(NCCNc3ccc(C#N)cn3)nc2-c2ccc(Cl)cc2Cl)n1` [CT99021]: the “differentiation into natural killer cells (CD56+ and CD4−)” value with PBMC (CD34−CD56−) cells is on record as “significantly lowered”. Moreover, the “production” value in test [2] was “effect of promoting the production”.

In the test on SW620, `COc1cccc2c1C(=O)c1c(O)c3c(c(O)c1C2=O)C[C@@](O)(C(=O)CO)C[C@@H]3O[C@H]1C[C@H](N)[C@H](O)[C@H](C)O1` [doxorubicin] returned a tumor size of 262 mm^3.

B1: IL-7: human interleukin 7, cytokine additive (protein, UniProt P13232 26-177, looked up)
Interleukin-7: DCDIEGKDGKQYESVLMVSIDQLLDSMKEIGSNCLNNEFNFFKRHICDANKEGMFLFRAARKLRQFLKMNSTGDFDLHLLKVSEGTTILLNCTGQVKGRKPAALGEAQPTKSLEENKSLKEQKKLNDLCFLKRLLQEIKTCWNKILMGTKEH
For B1, the “production” value in test [2] is reported as “effect of promoting the production”.
